Source: the METLIN SMRT retention time set (Domingo-Almenara et al. 2019)

Experiment: gradient 5% acetonitrile 3 min, to 50% in 2 min, to 85% in 15 min, held 3 min, 100 µL/min
Conditions: column: Zorbax Extend-C18 2.1 x 50 mm; eluents: water / acetonitrile, 0.1% formic acid
In short: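 Standards, all pure, were combined into mixtures of ~100 molecules and run at 100 μL/min on a Zorbax Extend-C18 column (2.1 × 50 mm, 1.8 μm) with water and acetonitrile, each containing 0.1% formic acid. A coupled quadrupole time-of-flight mass spectrometer operated in positive and negative ionization mode. Retention time values come from computationally picked adduct peaks, each inspected manually.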

RP-LC retention time [s] | Structure (SMILES)
652 | COc1ccc([C@@H]2CC(=O)c3c(O)cc(O[C@@H]4O[C@H](CO)[C@@H](O)[C@H](O)[C@H]4OC4O[C@@H](C)[C@H](O)[C@@H](O)[C@H]4O)cc3O2)cc1O (stereo not given in full)
760 | CCOc1ccc(-c2nc3ncccn3c2NCc2ccc(Cl)cc2)cc1OC
1030 | Cc1ccc(-c2nnc(-c3cccc(S(=O)(=O)NC(C)(C)C)c3)o2)cc1
620 | COc1ccc(NC(=O)N2C[C@H]3C[C@H](C2)[C@H]2CCCC(=O)N2C3)cc1
805 | O=C(c1ccc(Cl)cc1)N1CCC(n2c(-c3ccco3)nc3cccnc32)C1 (stereo not given)
887 | Cc1ccc(-n2nc(C(=O)Nc3ccc4c(c3)OCCO4)c3ncn(C)c(=O)c32)cc1
793 | COc1ccc(CNC(=O)NC2CCN(c3ccc(C)c(C)c3)C2=O)cc1 (stereo not given)
630 | O=C(Cc1nnc(-c2cccc(F)c2)o1)N1CCCCC1
832 | Cc1ccsc1C(=O)NCC(=O)N1CCCc2ccccc21
671 | CC(C)CCC(=O)N1CCN(c2nc(CN3CCC(C)CC3)cs2)CC1
730 | CCCn1c(=O)sc2cc(S(=O)(=O)N3CCC(C(=O)NC)CC3)ccc21
592 | Fc1ccccc1-c1nc2ccccc2[nH]1
705 | Cc1nc(OCC(=O)NCc2ccc(F)cc2)c2ccccc2n1

More lines, now with the values behind:

Structure (SMILES) | RP-LC retention time [s]
COC(=O)c1ncn2c1C(=O)N(Cc1ccc(F)cc1)C(C)(C(=O)NCc1ccc(C)cc1)C2 (stereo not given) | 772
Cc1nc(C)c(C(=O)N2CC(F)(F)C[C@H]2COc2ccc3c(c2)CCC3)s1 | 1080
O=C(Cc1cccc(F)c1)N1CCC(Nc2ncnc3c2CCC3)C1 (stereo not given) | 617
COc1cccc(OC)c1CN1CCC2(CC1)CC(O)CCO2 (stereo not given) | 597
COC(=O)c1ccc2c(=O)n(-c3cccc(Cl)c3)c(N3CCC(C(N)=O)CC3)nc2c1 | 781
COc1ccc(-c2cc(N3CCN(C(=O)Nc4ccc5c(c4)OCCO5)CC3)ncn2)cc1 | 652
C/C(=C\c1csc(C)n1)[C@@H]1C[C@@H]2O[C@]2(C)CCC[C@H](C)[C@H](O)[C@@H](C)C(=O)C(C)(C)[C@@H](O)CC(=O)N1 | 707
CCC(C(=O)NC(C)C(=O)Nc1nc2ccccc2[nH]1)c1ccccc1 (stereo not given) | 691
COc1ccc(NC(=O)N2CCN(c3nc4ccccc4n3C)CC2)c(OC)c1 | 609
CCN1CCN(CCNC(=O)C2CCCN(C(=O)c3[nH]c(C)c(C(=O)OC)c3C)C2)CC1 (stereo not given) | 565
CCN(c1ccccc1)S(=O)(=O)c1cc(-c2[nH]ncc2C(=O)N2CCCC2)oc1C | 781
Cc1ccc(-c2noc(CN3C(=O)C(C)Oc4ccccc43)n2)cc1C (stereo not given) | 1180
CCc1nc2cc(-c3noc(Cc4cc(OC)cc(OC)c4)n3)ccc2o1 | 1080
Cc1c2ccncc2cc2c1[nH]c1ccccc12 | 637
O=C(NCc1ccc(-c2noc(-c3ccc(F)c(F)c3)n2)s1)C1CC1 | 903
CC(C)C(=O)N1CCc2cc(-c3ccc(C(=O)NCCCN4CCN(C)CC4)cc3)ccc21 | 607
O=C(Cc1c(F)cccc1Cl)NCC(=O)N1CCN(c2ccccn2)CC1 | 605
CCc1cccc(NC(=O)C2CCCN(S(=O)(=O)c3cn(C(C)C)cn3)C2)c1 (stereo not given) | 893
CC1CCc2onc(C(=O)N3CCN(c4ccccc4)CC3)c2C1 (stereo not given) | 1020
Cc1nn(-c2nc(-c3ccc(Cl)cc3)cs2)c(C)c1CC(=O)N1CCCCC1 | 1260
O=C(COc1ccc2c(c1)C(=O)CC2)NCCC1=CCCCC1 | 827
Cc1nnc(N2CCCC(C(=O)NCCC(C)C)C2)c2nn(-c3ccc(Cl)cc3)c(C)c12 (stereo not given) | 783
